From patent publication US11932601B2, “Immunoregulatory agents” (FLEXUS BIOSCIENCES, INC., priority 2014, dated 2024)

Biological target: T1, human IDO1 (Homo sapiens, UniProt P14902)
T1 construct: expressed in transfected cells
Assay: HEK293 cells stably expressing human IDO1, IDO inhibition assay (kynurenine, Ehrlich reagent, absorbance 490 nm)
Type: cell-based
Settings: 20 hours incubation, 500 nM reference standard = 100% inhibition, read-out: HEK Human IDO-1 Biological Activity (IC50)
Procedure: HEK293 cells were transfected with a pCDNA-based mammalian expression vector harboring human IDO1 cDNA (NM 002164.2) by electroporation. They were cultured in medium (DMEM with 10% FBS) containing 1 mg/ml G418 for two weeks. Clones of HEK293 cells that stably expressed human IDO1 protein were selected and expanded for IDO inhibition assay.
The human IDO1/HEK293 cells were seeded at 10,000 cells per 50 μL per well with RPMI/phenol red free media contains 10% FBS in a 384-well black wall clear bottom tissue culture plate (Matrix Technologies LLC) 100 nL of certain concentration of compound was then added to each well using ECHO liquid handling systems. The cells were incubated for 20 hours in 37° C. incubator with 5% CO2.
The compound treatments were stopped by adding Trichloroacetic Acid (Sigma-Aldrich) to a final concentration at 0.2%. The cell plate was further incubated at 50° C. for 30 minute. The equal volume supernatant […] and 0.2% (w/v) Ehrlich reagent (4-dimethylaminobenzaldehyde, Sigma-Aldrich) in glacial acetic acid were mixed in a new clear bottom 384-well plate. This plate was then incubated at room temperature for 30 minute. The absorbance at 490 nm was measured on Envision plate reader.

T1 sequence (P14902 whole entry): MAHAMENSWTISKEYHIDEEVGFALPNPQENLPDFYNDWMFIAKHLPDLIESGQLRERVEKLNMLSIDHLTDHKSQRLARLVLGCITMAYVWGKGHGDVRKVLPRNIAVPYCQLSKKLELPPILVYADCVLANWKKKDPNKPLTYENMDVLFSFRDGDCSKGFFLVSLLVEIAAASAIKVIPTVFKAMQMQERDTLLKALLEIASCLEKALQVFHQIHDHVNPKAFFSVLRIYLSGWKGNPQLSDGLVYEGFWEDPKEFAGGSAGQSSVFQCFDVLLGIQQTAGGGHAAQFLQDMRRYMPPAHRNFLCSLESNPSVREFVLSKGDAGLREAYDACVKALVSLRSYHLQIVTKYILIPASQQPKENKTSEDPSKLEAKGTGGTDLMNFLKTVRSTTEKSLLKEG

| IC50 [nM] | Compound |
| --- | --- |
| > 250 | CCC(C(=O)Nc1ccc(Cl)cc1)[C@H]1CC[C@H](Oc2ccncc2C(F)(F)F)CC1 (mixture of isomers) [Example 305, N-(4-Chlorophenyl)-2-(trans-4-((3-(trifluoromethyl)pyridin-4-yl)oxy)cyclohexyl)butanamide] |
| < 50 | CCC(C(=O)Nc1ccc(Cl)cc1)[C@H]1CC[C@@H](Oc2ccncc2)CC1 (mixture of isomers) [Example 306, N-(4-Chlorophenyl)-2-(cis-4-(pyridin-4-yloxy)cyclohexyl)butanamide] |
| < 50 | CC(C(=O)Nc1ccc(Cl)cc1)[C@H]1CC[C@H](Oc2ccnc(C(F)(F)F)c2)CC1 (mixture of isomers) [Example 323, (+/−)-N-(4-chlorophenyl)-2-(trans-4-((2-(trifluoromethyl)pyridin-4-yl)oxy)cyclohexyl) propanamide] |
| > 250 | CCC(C(=O)Nc1ccc(Cl)cc1)[C@H]1CC[C@H](Oc2ccncc2C(F)(F)F)CC1 (single isomer, unassigned) [Example 305a, N-(4-Chlorophenyl)-2-((1r,4r)-4-((3-(trifluoromethyl)pyridin-4-yl)oxy)cyclohexyl)-2λ^3-butanamide] |
| < 50 | CCC(C(=O)Nc1ccc(Cl)cc1)[C@H]1CC[C@H](Oc2ccncc2C(F)(F)F)CC1 (single isomer, unassigned) [Example 305b, N-(4-Chlorophenyl)-2-((1r,4r)-4-((3-(trifluoromethyl)pyridin-4-yl)oxy)cyclohexyl)-2λ^3-butanamide] |
| < 50 | CCC(C(=O)Nc1ccc(Cl)cc1)[C@H]1CC[C@@H](Oc2ccncc2)CC1 (single isomer, unassigned) [Example 306a, N-(4-Chlorophenyl)-2-(cis-4-(pyridin-4-yloxy)cyclohexyl)butanamide] |
| > 250 | CCC(C(=O)Nc1ccc(Cl)cc1)[C@H]1CC[C@@H](Oc2ccncc2)CC1 (single isomer, unassigned) [Example 306b, N-(4-Chlorophenyl)-2-(cis-4-(pyridin-4-yloxy)cyclohexyl)butanamide] |
| < 50 | COc1cc([C@H]2CC[C@@H]([C@H](C)C(=O)Nc3ccc(Cl)cc3)CC2)ccn1 (single isomer, unassigned) [Example 307c, N-(4-Chlorophenyl)-2-(4-(2-methoxypyridin-4-yl)cyclohexyl)propanamide] |
| < 50 | COc1cc([C@H]2CC[C@@H]([C@H](C)C(=O)Nc3ccc(Cl)cc3)CC2)ccn1 (single isomer, unassigned) [Example 307d, N-(4-Chlorophenyl)-2-(4-(2-methoxypyridin-4-yl)cyclohexyl)propanamide] |
| < 250 | COc1cc([C@H]2CC[C@@H]([C@H](C)C(=O)Nc3ccc(Cl)cc3)CC2)ccn1 (single isomer, unassigned) [Example 307e, N-(4-Chlorophenyl)-2-(4-(2-methoxypyridin-4-yl)cyclohexyl)propanamide] |
| < 50 | COc1cc([C@H]2CC[C@@H]([C@H](C)C(=O)Nc3ccc(Cl)cc3)CC2)ccn1 (single isomer, unassigned) [Example 307f, N-(4-Chlorophenyl)-2-(4-(2-methoxypyridin-4-yl)cyclohexyl)propanamide] |
| < 250 | Cc1cc(C2CCC(C(C)C(=O)Nc3ccc(Cl)cc3)CC2)cc(C)n1 (single isomer, unassigned) [Example 308a, N-(4-chlorophenyl)-2-(4-(2,6-dimethylpyridin-4-yl)cyclohexyl) propanamide] |
| < 50 | Cc1cc(C2CCC(C(C)C(=O)Nc3ccc(Cl)cc3)CC2)cc(C)n1 (single isomer, unassigned) [Example 308b, N-(4-chlorophenyl)-2-(4-(2,6-dimethylpyridin-4-yl)cyclohexyl) propanamide] |
| > 250 | Cc1cc(C2CCC(C(C)C(=O)Nc3ccc(Cl)cc3)CC2)cc(C)n1 (single isomer, unassigned) [Example 308c, N-(4-chlorophenyl)-2-(4-(2,6-dimethylpyridin-4-yl)cyclohexyl) propanamide] |
| > 250 | Cc1cc(C2CCC(C(C)C(=O)Nc3ccc(Cl)cc3)CC2)ccn1 (single isomer, unassigned) [Example 309a, N-(4-chlorophenyl)-2-(4-(2-methylpyridin-4-yl)cyclohexyl) propanamide] |
| < 50 | Cc1cc(C2CCC(C(C)C(=O)Nc3ccc(Cl)cc3)CC2)ccn1 (single isomer, unassigned) [Example 309b, N-(4-chlorophenyl)-2-(4-(2-methylpyridin-4-yl)cyclohexyl) propanamide] |
| > 250 | Cc1cc(C2CCC(C(C)C(=O)Nc3ccc(Cl)cc3)CC2)ccn1 (single isomer, unassigned) [Example 309c, N-(4-chlorophenyl)-2-(4-(2-methylpyridin-4-yl)cyclohexyl) propanamide] |

| IC50 [nM] | Compound |
| --- | --- |
| < 50 | Cc1cc(C2CCC(C(C)C(=O)Nc3ccc(Cl)cc3)CC2)ccn1 (single isomer, unassigned) [Example 309d, N-(4-chlorophenyl)-2-(4-(2-methylpyridin-4-yl)cyclohexyl) propanamide] |
| < 50 | Cc1c(C2CCC(C(C)C(=O)Nc3ccc(Cl)cc3)CC2)ccnc1F (single isomer, unassigned) [Example 310a, (+/−)N-(4-chlorophenyl)-2-(4-(2-fluoro-3-methylpyridin-4-yl)cyclohexyl) propanamide] |
| < 50 | Cc1c(C2CCC(C(C)C(=O)Nc3ccc(Cl)cc3)CC2)ccnc1F (single isomer, unassigned) [Example 310b, (+/-)N-(4-chlorophenyl)-2-(4-(2-fluoro-3-methylpyridin-4-yl)cyclohexyl) propanamide] |
| < 50 | Cc1c(C2CCC(C(C)C(=O)Nc3ccc(Cl)cc3)CC2)ccnc1F (single isomer, unassigned) [Example 310c, N-(4-chlorophenyl)-2-(4-(2-fluoro-3-methylpyridin-4-yl)cyclohexyl) propanamide] |
| < 50 | Cc1c(C2CCC(C(C)C(=O)Nc3ccc(Cl)cc3)CC2)ccnc1F (single isomer, unassigned) [Example 310d, N-(4-chlorophenyl)-2-(4-(2-fluoro-3-methylpyridin-4-yl)cyclohexyl) propanamide] |
| < 50 | Cc1c(C2CCC(C(C)C(=O)Nc3ccc(Cl)cc3)CC2)ccnc1F (single isomer, unassigned) [Example 310e, N-(4-chlorophenyl)-2-(4-(2-fluoro-3-methylpyridin-4-yl)cyclohexyl) propanamide] |
| < 250 | Cc1c(C2CCC(C(C)C(=O)Nc3ccc(Cl)cc3)CC2)ccnc1F (single isomer, unassigned) [Example 310f, N-(4-chlorophenyl)-2-(4-(2-fluoro-3-methylpyridin-4-yl)cyclohexyl) propanamide] |
| < 50 | Cc1nccc(C2CCC(C(C)C(=O)Nc3ccc(Cl)cc3)CC2)c1C (single isomer, unassigned) [Example 311a, N-(4-chlorophenyl)-2-(4-(2,3-dimethylpyridin-4-yl)cyclohexyl) propanamide] |
| < 50 | Cc1nccc(C2CCC(C(C)C(=O)Nc3ccc(Cl)cc3)CC2)c1C (single isomer, unassigned) [Example 311b, N-(4-chlorophenyl)-2-(4-(2,3-dimethylpyridin-4-yl)cyclohexyl) propanamide] |
| > 250 | Cc1nccc(C2CCC(C(C)C(=O)Nc3ccc(Cl)cc3)CC2)c1C (single isomer, unassigned) [Example 311c, N-(4-chlorophenyl)-2-(4-(2,3-dimethylpyridin-4-yl)cyclohexyl) propanamide] |
| < 50 | Cc1nccc(C2CCC(C(C)C(=O)Nc3ccc(Cl)cc3)CC2)c1C (single isomer, unassigned) [Example 311d, N-(4-chlorophenyl)-2-(4-(2,3-dimethylpyridin-4-yl)cyclohexyl) propanamide] |
| < 250 | Cc1nccc(C2CCC(C(C)C(=O)Nc3ccc(Cl)cc3)CC2)c1C (single isomer, unassigned) [Example 311f, N-(4-chlorophenyl)-2-(4-(2,3-dimethylpyridin-4-yl)cyclohexyl) propanamide] |
| < 250 | CC(C(=O)Nc1ccc(Cl)cc1)C1CCC(c2ccnc(C(F)(F)F)c2)CC1 (single isomer, unassigned) [Example 312a, N-(4-chlorophenyl)-2-(4-(2-(trifluoromethyl)pyridin-4-yl)cyclohexyl) propanamide] |
| < 50 | CC(C(=O)Nc1ccc(Cl)cc1)C1CCC(c2ccnc(C(F)(F)F)c2)CC1 (single isomer, unassigned) [Example 312b, N-(4-chlorophenyl)-2-(4-(2-(trifluoromethyl)pyridin-4-yl)cyclohexyl) propanamide] |
| < 50 | CC(C(=O)Nc1ccc(Cl)cc1)C1CCC(c2ccnc(C(F)(F)F)c2)CC1 (single isomer, unassigned) [Example 312c, N-(4-chlorophenyl)-2-(4-(2-(trifluoromethyl)pyridin-4-yl)cyclohexyl) propanamide] |
| < 250 | CC(C(=O)Nc1ccc(Cl)cc1)C1CCC(c2ccnc(C(F)(F)F)c2)CC1 (single isomer, unassigned) [Example 312d, N-(4-chlorophenyl)-2-(4-(2-(trifluoromethyl)pyridin-4-yl)cyclohexyl) propanamide] |
